{
  "source": "patent US10166229B2",
  "about": "“Compounds and methods for the treatment of cancer” (The Board of Trustees of the University of Illinois, priority 2005, dated 2019)",
  "key": {"procaspase-3": {"biological_target": "procaspase-3 (Homo sapiens (Human), UniProt P42574)", "sequence (P42574 whole entry)": "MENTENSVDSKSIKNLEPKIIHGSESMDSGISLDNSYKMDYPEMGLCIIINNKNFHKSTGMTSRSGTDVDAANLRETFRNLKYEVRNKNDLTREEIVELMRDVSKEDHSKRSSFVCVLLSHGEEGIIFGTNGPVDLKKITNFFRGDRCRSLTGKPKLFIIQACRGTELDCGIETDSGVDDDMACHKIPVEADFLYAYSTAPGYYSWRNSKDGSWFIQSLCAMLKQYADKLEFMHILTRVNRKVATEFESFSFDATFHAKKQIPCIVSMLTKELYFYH", "assay": "PAC-1 activation gel (Western blot of procaspase-3 cleavage)", "assay_type": "biochemical", "method": "Procaspase-3 was expressed and isolated exactly as above. Procaspase-3 was diluted to about 50 μg/mL in caspase assay buffer. […] After this incubation, an equal volume of load buffer (150 mM NaCl, 50 mM Tris, 2% SDS, 20% glycerol, pH 8.0) was added to each procaspase-3 sample. All samples were then stored at −80° C. until the time-course was completed. All samples were then incubated at 95° C. for 5 minutes and run on a 12% SDS-PAGE gel. Proteins were then transferred to nitrocellulose paper overnight. Blots were washed in TTBS (150 mM NaCl, 50 mM Tris, 0.1% Tween-20, pH 7.4) and blocked with a 10% milk solution for 2 hours. Blots were then incubated in a 1:5000 dilution of anti-Penta His Alexa Fluor 647 antibody for 2 hours. The blot was then washed with TTBS and scanned on a Typhoon fluorescence scanner (Amersham Biosciences, Sunnyvale Calif.)."}, "[1]": {"test_system": "white blood cells derived from the bone marrow of a healthy human donor", "assay": "Cell death in normal white blood cells", "assay_type": "cell-based", "conditions": "relative to cancer cell lines"}, "procaspase-7": {"biological_target": "procaspase-7 (Homo sapiens (Human), UniProt P55210)", "sequence (P55210 whole entry)": "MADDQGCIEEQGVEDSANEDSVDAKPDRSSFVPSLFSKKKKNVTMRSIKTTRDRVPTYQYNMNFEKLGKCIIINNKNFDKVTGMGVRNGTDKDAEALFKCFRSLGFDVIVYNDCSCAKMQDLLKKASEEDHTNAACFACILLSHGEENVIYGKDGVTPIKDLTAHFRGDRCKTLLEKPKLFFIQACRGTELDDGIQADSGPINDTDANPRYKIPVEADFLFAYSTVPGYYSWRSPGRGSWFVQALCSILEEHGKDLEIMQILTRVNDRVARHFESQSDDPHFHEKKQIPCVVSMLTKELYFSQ", "conditions": "read-out: EC50 for activation of procaspase-7"}},
  "note": "Entries after “also recorded” stand apart in the source; their conditions may differ.",
  "data": [
    {"smiles": "C=CCc1cccc(/C=N/NC(=O)CN2CCN(Cc3ccccc3)CC2)c1O", "note": "[PAC-1]", "values": [
      {"measurement": "effectiveness in procaspase-3 cleavage assay", "setting": "procaspase-3; 5 μM", "result": "effective"},
      {"measurement": "time to cleavage generating the p19 fragment", "setting": "procaspase-3; 100 μM PAC-1", "result": "≤ 1", "unit": "h"},
      {"measurement": "cleavage (processing) of procaspase-3", "setting": "procaspase-3; 100 μM PAC-1, after 4 hours", "result": "> 50", "unit": "%"},
      {"measurement": "potency/toxicity in normal white blood cells", "setting": "[1]", "result": "comparatively less toxic; also recorded: markedly less potent"},
      {"measurement": "EC50", "setting": "procaspase-7", "result": 4.5, "unit": "µM"}
    ]}
  ]
}
